From ChEMBL document CHEMBL5465560, “Selectivity Literature for EUbOPEN Chemogenomic Library” (2024)

What was measured:
[1] = target: T1, Activin receptor type-1B (Homo sapiens) (UniProt P36896); assay: Selectivity interaction (KinomeScan (DiscoverX)) EUB0001079a ACVR1B; settings: at 1 µM
T1 sequence (whole entry): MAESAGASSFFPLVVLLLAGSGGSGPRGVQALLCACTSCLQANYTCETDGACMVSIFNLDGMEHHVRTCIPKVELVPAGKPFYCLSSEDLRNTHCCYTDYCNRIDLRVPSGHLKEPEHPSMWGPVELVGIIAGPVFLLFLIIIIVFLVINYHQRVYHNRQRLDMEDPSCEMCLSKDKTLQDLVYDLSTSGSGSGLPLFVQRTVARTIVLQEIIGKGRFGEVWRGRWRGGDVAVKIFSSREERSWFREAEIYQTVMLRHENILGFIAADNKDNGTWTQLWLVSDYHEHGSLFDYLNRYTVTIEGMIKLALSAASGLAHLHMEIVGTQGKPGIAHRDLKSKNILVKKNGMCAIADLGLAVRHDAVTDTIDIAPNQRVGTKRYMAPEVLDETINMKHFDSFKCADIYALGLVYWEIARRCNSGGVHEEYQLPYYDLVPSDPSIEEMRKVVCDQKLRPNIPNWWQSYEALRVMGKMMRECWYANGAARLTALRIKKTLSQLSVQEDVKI

[2] = target: T2, Serine/threonine-protein kinase tousled-like 1 (Homo sapiens) (UniProt Q9UKI8); settings: at 10 µM
T2 sequence (whole entry): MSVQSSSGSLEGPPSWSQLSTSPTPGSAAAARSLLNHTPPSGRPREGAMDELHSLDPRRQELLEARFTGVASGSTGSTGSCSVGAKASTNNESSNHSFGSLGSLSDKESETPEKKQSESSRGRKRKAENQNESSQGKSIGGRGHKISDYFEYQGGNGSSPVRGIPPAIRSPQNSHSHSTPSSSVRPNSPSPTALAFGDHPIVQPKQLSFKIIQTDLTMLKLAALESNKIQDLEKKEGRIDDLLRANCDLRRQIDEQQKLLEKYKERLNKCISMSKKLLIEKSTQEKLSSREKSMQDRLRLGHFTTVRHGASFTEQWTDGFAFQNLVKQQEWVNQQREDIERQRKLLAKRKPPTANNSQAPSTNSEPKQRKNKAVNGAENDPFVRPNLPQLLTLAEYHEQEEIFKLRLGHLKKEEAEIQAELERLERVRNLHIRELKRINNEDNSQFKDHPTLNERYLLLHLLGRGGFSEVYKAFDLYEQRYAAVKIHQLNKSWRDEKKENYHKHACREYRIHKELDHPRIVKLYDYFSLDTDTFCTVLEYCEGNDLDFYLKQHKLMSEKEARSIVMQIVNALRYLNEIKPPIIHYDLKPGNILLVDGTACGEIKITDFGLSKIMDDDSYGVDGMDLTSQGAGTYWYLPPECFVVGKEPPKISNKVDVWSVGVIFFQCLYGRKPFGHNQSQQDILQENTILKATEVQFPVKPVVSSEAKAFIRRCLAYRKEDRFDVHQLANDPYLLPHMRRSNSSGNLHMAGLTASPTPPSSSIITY

[3] = target: T3, Hormonally up-regulated neu tumor-associated kinase (Homo sapiens) (UniProt P57058); assay: Selectivity interaction (KinomeScan (DiscoverX)) EUB0000092b HUNK; settings: at 10 µM
T3 sequence (whole entry): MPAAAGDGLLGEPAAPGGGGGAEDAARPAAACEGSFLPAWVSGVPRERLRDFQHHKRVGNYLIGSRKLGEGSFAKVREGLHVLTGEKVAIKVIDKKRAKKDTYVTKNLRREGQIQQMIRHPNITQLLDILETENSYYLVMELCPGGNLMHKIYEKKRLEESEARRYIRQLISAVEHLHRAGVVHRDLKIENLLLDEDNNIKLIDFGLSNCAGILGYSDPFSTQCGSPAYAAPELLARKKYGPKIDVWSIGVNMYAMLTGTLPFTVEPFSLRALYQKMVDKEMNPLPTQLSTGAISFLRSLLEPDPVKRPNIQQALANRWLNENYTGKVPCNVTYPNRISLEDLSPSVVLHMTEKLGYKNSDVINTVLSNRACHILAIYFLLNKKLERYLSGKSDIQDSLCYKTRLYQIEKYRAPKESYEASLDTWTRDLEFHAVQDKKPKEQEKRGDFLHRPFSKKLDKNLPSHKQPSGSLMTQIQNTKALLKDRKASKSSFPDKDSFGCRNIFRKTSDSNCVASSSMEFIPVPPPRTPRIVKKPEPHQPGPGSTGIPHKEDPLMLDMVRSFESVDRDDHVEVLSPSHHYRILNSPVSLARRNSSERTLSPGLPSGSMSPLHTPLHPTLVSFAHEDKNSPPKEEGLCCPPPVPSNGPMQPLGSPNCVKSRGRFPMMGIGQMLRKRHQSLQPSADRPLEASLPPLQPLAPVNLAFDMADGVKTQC

[4] = target: Phosphatidylinositol 4,5-bisphosphate 3-kinase catalytic subunit beta isoform (Homo sapiens) (UniProt P42338); assay: Selectivity interaction (KinomeScan (DiscoverX)) EUB0000045b PIK3CB
[5] = target: T4, Tyrosine-protein kinase ZAP-70 (Homo sapiens, UniProt P43403)
T4 sequence (P43403 whole entry): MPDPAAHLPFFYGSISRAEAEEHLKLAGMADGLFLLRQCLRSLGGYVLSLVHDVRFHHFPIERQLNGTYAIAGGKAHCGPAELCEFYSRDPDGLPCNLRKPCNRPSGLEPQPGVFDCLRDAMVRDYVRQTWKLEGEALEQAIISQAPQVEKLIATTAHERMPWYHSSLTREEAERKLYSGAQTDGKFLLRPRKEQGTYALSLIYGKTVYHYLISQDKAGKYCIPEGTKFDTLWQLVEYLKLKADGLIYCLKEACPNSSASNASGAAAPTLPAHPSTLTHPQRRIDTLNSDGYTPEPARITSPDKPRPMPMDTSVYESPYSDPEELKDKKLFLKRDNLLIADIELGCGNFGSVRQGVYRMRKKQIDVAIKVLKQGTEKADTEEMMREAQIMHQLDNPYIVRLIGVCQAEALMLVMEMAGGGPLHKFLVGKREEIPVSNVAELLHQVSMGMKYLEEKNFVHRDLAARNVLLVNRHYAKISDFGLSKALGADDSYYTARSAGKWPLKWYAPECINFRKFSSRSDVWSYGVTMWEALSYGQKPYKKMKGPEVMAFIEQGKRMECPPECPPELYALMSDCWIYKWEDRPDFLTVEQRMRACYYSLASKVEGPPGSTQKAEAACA

Chain of Phosphatidylinositol 4,5-bisphosphate 3-kinase catalytic subunit beta isoform (Homo sapiens) (P42338 whole entry, looked up, canonical isoform): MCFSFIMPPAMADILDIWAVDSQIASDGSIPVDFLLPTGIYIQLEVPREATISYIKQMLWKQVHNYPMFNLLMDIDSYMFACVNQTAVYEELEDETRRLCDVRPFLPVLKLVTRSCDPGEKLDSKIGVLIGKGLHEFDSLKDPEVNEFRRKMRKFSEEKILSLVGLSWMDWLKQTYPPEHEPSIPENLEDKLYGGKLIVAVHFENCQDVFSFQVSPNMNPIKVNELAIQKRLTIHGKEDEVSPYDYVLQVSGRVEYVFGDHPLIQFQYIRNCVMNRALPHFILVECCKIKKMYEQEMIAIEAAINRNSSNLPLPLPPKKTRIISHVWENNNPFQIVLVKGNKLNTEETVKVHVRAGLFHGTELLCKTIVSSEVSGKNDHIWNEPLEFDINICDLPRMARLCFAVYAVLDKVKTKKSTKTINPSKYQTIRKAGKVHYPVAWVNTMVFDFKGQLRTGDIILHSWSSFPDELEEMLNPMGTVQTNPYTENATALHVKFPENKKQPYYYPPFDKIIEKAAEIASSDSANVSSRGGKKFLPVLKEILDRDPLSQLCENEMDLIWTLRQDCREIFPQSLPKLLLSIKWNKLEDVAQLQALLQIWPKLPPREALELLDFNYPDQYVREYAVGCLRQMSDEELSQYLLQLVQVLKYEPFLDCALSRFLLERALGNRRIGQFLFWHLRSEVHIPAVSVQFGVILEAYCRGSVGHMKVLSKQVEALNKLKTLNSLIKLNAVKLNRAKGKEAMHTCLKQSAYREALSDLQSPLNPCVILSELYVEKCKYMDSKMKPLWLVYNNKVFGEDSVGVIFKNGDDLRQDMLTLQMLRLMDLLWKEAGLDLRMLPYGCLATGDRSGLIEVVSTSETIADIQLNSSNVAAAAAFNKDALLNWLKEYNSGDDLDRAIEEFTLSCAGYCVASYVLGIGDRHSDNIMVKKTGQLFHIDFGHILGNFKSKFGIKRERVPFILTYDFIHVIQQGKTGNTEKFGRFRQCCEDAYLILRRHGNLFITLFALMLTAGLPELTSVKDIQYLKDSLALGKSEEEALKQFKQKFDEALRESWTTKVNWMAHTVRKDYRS

Q: `Nc1cnc(N2CCc3cc(S(=O)(=O)Nc4c(F)cc(Cl)cc4F)cc(N4CCCC4=O)c32)nc1` [TP-020n] was tested. Which % of control [1] did it give?
A: 96%

Q: How did the % of control [2] turn out when `COCC(=O)NC/C=C/c1ccc2ncnc(Nc3ccc(Oc4ccc(C)nc4)c(C)c3)c2c1` [CP-724714] was run?
A: 79%

Q: With `CCC(=O)N1CCN(c2ccc(-n3c(=O)ccc4cnc5ccc(-c6cnc7ccccc7c6)cc5c43)cc2C(F)(F)F)CC1` as the compound, how does the % of control [3] read?
A: 91%

Q: Which results are given for `C=CC(=O)Nc1cc(-n2c(=O)ccc3cnc4ccc(-c5ccc(NS(C)(=O)=O)cc5)cc4c32)ccc1C`?
A: % of control ([4]; at 1 µM): 75%; % of control ([4]; at 10 µM): 44%

Q: With `CCc1cccc(CC)c1NC(=O)c1nn(C)c2c1CCc1cnc(Nc3ccc(C(=O)NC4CCN(C)CC4)cc3OC(F)(F)F)nc1-2` as the compound, how does the IC50 [5] read?
A: > 10 µM
